Measured values published in patent publication US6838416B2, “Herbicidal 5-benzyloxymethyl-1,2-isoxazoline derivatives” (Korea Research Institute of Chemical Technology, priority 2000, dated 2005).

How the values were obtained:
ECHOR (seed) = experiment: Assay for herbicidal activity, paddy pots: ECHOR; assay type: in vivo, Echinochloa crus-galli var. oryzicola; settings: three weeks after application, 0 untreated control, 100 complete kill
Description: (§1) To evaluate herbicidal activity against the paddy weeds in the paddy rice (ORYSA: Oryza sativa L.), the herbicidal activity of the compounds of the invention was compared to that of the compound No.109 (compound A) disclosed in U.S. Pat. […] The paddy weeds tested were ECHOR (Echinochloa crus-galli var. oryzicola), SCPJU (Scirpus juncoides ROXB), MOOVA (Monochoria vaginalis […] (Cyperus serotinus ROTTB), and SAGPY (Sagittaria pygmaea MTQ). The vessels employed were plastic pots having an area of 140 cm^2 and filled with a sandy loam soil containing 1.2% organic matter (pH 6).

SCPJU (seed) = experiment: Assay for herbicidal activity, paddy pots: SCPJU; assay type: in vivo, Scirpus juncoides ROXB; settings: three weeks after application, 0 untreated control, 100 complete kill
Description: as §1

MOOVA (seed) = experiment: Assay for herbicidal activity, paddy pots: MOOVA; assay type: in vivo, Monochoria vaginalis PRESL; settings: three weeks after application, 0 untreated control, 100 complete kill
Description: as §1

CYPSE (tuber) = experiment: Assay for herbicidal activity, paddy pots: CYPSE; assay type: in vivo, Cyperus serotinus ROTTB; settings: three weeks after application, 0 untreated control, 100 complete kill
Description: as §1

SAGPY (tuber) = experiment: Assay for herbicidal activity, paddy pots: SAGPY; assay type: in vivo, Sagittaria pygmaea MTQ; settings: three weeks after application, 0 untreated control, 100 complete kill
Description: as §1

ORYSA 2-leaf stage = experiment: Assay for herbicidal activity on the 2-leaf stage weeds and rice plants: rice 2-leaf stage; assay type: in vivo, Oryza sativa L.; settings: applied at 2-leaf stage, 0 untreated control, 100 complete kill
Experimental: (§2) The vessels employed were plastic pots having an area of 140 cm^2 and filled with a sandy loam soil containing 1.2% organic matter (pH 6). Pregerminated seed of rice (ORYSA: Oryza sativa L.) and seed of ECHOR (Echinochloa crus-galli var oryzicola) were seeded on the soil surface, respectively. The pots were then watered at the depth of 3 cm just after seeding.
(§3) Seven days after seeding, the pregerminated seeds of rice were seeded on the soil face whilst the early seeded rice in the same pots and barnyard grass (ECHOR) grew up to the 2-leaf stage. Two days after, a solution of the compound of Example 8 and Tween-20 as a non-ionic emulsifier in 50% acetone, was diluted with water to a concentration of 0.016, 0.063, 0.25, 1 and 4.0 kg/ha, respectively and applied evenly to the test pots.
(§4) Three weeks after starting from the beginning, the application of the herbicide, the herbicidal activity on paddy weeds and the phytotoxicity to the paddy rice plant were visually rated by a percentage grading wherein 0 indicates as an untreated control and 100 indicates complete kill. The results are shown in the following

ORYSA seed = experiment: Assay for herbicidal activity on the 2-leaf stage weeds and rice plants: rice seed; assay type: in vivo, Oryza sativa L.; settings: applied two days after seeding pregerminated seeds, 0 untreated control, 100 complete kill
Experimental: as §2, §3, §4

ECHOR 2-leaf stage = experiment: Assay for herbicidal activity on the 2-leaf stage weeds and rice plants: ECHOR 2-leaf stage; assay type: in vivo, Echinochloa crus-galli var oryzicola; settings: applied at 2-leaf stage, 0 untreated control, 100 complete kill
Experimental: as §2, §3, §4

Cc1ccsc1C1=NOC(C)(COCc2c(F)cccc2F)C1 (stereo not shown) [EXAMPLE 8, 5-(2,6-difluorobenzyl)oxymethyl-5-methyl-3-(4-methylthiophene-5-yl)-1,2-isoxazoline]
ECHOR (seed) herbicidal activity, visual percentage grading (ECHOR (seed); 0.016 kg/ha): 50% | ECHOR (seed) herbicidal activity, visual percentage grading (ECHOR (seed); 0.063 kg/ha): 100% | ECHOR (seed) herbicidal activity, visual percentage grading (ECHOR (seed); 0.250 kg/ha): 100% | ECHOR (seed) herbicidal activity, visual percentage grading (ECHOR (seed); 1.000 kg/ha): 100% | ECHOR (seed) herbicidal activity, visual percentage grading (ECHOR (seed); 4.000 kg/ha): 100% | SCPJU (seed) herbicidal activity, visual percentage grading (SCPJU (seed); 0.016 kg/ha): 0% | SCPJU (seed) herbicidal activity, visual percentage grading (SCPJU (seed); 0.063 kg/ha): 10% | SCPJU (seed) herbicidal activity, visual percentage grading (SCPJU (seed); 0.250 kg/ha): 10% | SCPJU (seed) herbicidal activity, visual percentage grading (SCPJU (seed); 1.000 kg/ha): 40% | SCPJU (seed) herbicidal activity, visual percentage grading (SCPJU (seed); 4.000 kg/ha): 100% | MOOVA (seed) herbicidal activity, visual percentage grading (MOOVA (seed); 0.016 kg/ha): 50% | MOOVA (seed) herbicidal activity, visual percentage grading (MOOVA (seed); 0.063 kg/ha): 90% | MOOVA (seed) herbicidal activity, visual percentage grading (MOOVA (seed); 0.250 kg/ha): 90% | MOOVA (seed) herbicidal activity, visual percentage grading (MOOVA (seed); 1.000 kg/ha): 100% | MOOVA (seed) herbicidal activity, visual percentage grading (MOOVA (seed); 4.000 kg/ha): 100% | CYPSE (tuber) herbicidal activity, visual percentage grading (CYPSE (tuber); 0.016 kg/ha): 0% | CYPSE (tuber) herbicidal activity, visual percentage grading (CYPSE (tuber); 0.063 kg/ha): 50% | CYPSE (tuber) herbicidal activity, visual percentage grading (CYPSE (tuber); 0.250 kg/ha): 90% | CYPSE (tuber) herbicidal activity, visual percentage grading (CYPSE (tuber); 1.000 kg/ha): 100% | CYPSE (tuber) herbicidal activity, visual percentage grading (CYPSE (tuber); 4.000 kg/ha): 100% | SAGPY (tuber) herbicidal activity, visual percentage grading (SAGPY (tuber); 0.016 kg/ha): 0% | SAGPY (tuber) herbicidal activity, visual percentage grading (SAGPY (tuber); 0.063 kg/ha): 0% | SAGPY (tuber) herbicidal activity, visual percentage grading (SAGPY (tuber); 0.250 kg/ha): 0% | SAGPY (tuber) herbicidal activity, visual percentage grading (SAGPY (tuber); 1.000 kg/ha): 50% | SAGPY (tuber) herbicidal activity, visual percentage grading (SAGPY (tuber); 4.000 kg/ha): 80% | ORYSA 2-leaf stage phytotoxicity, visual percentage grading (ORYSA 2-leaf stage; 0.016 kg/ha): 0% | ORYSA 2-leaf stage phytotoxicity, visual percentage grading (ORYSA 2-leaf stage; 0.063 kg/ha): 0% | ORYSA 2-leaf stage phytotoxicity, visual percentage grading (ORYSA 2-leaf stage; 0.250 kg/ha): 0% | ORYSA 2-leaf stage phytotoxicity, visual percentage grading (ORYSA 2-leaf stage; 1.000 kg/ha): 20% | ORYSA 2-leaf stage phytotoxicity, visual percentage grading (ORYSA 2-leaf stage; 4.000 kg/ha): 65% | ORYSA (seed) phytotoxicity, visual percentage grading (ORYSA seed; 0.016 kg/ha): 0% | ORYSA (seed) phytotoxicity, visual percentage grading (ORYSA seed; 0.063 kg/ha): 20% | ORYSA (seed) phytotoxicity, visual percentage grading (ORYSA seed; 0.250 kg/ha): 55% | ORYSA (seed) phytotoxicity, visual percentage grading (ORYSA seed; 1.000 kg/ha): 80% | ORYSA (seed) phytotoxicity, visual percentage grading (ORYSA seed; 4.000 kg/ha): 95% | ECHOR 2-leaf stage herbicidal activity, visual percentage grading (ECHOR 2-leaf stage; 0.016 kg/ha): 45% | ECHOR 2-leaf stage herbicidal activity, visual percentage grading (ECHOR 2-leaf stage; 0.063 kg/ha): 95% | ECHOR 2-leaf stage herbicidal activity, visual percentage grading (ECHOR 2-leaf stage; 0.250 kg/ha): 100% | ECHOR 2-leaf stage herbicidal activity, visual percentage grading (ECHOR 2-leaf stage; 1.000 kg/ha): 100% | ECHOR 2-leaf stage herbicidal activity, visual percentage grading (ECHOR 2-leaf stage; 4.000 kg/ha): 100%
